Reference: PubChem BioAssay (NCI)
Values joined by “and” are separate entries in the source; they are usually repeats but may differ in a detail not shown here. Equal values may be shown once.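 Following 48 hours of exposure in 96-well plates, responses at five concentrations were used to interpolate endpoints linearly. Abbreviation: GI50, concentration required for 50% inhibition of growth. TGI: concentration producing complete growth inhibition.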

What was measured:
Test in all cases: growth of human tumour cells (NCI), 48 h
HCC-2998 colon = system: HCC-2998 colon
UACC-62 melanoma = system: UACC-62 melanoma
HCT-116 colon = system: HCT-116 colon
M14 melanoma = system: M14 melanoma
SK-MEL-28 melanoma = system: SK-MEL-28 melanoma
OVCAR-3 ovarian = system: OVCAR-3 ovarian
BT-549 breast = system: BT-549 breast
LOX IMVI melanoma = system: LOX IMVI melanoma
UO-31 renal = system: UO-31 renal
HT29 colon = system: HT29 colon

Row | SMILES | GI50 (HCC-2998 colon) | TGI (HCC-2998 colon) | GI50 (UACC-62 melanoma) | TGI (UACC-62 melanoma) [µM] | GI50 (HCT-116 colon) | TGI (HCT-116 colon) | GI50 (M14 melanoma) | TGI (M14 melanoma) | GI50 (SK-MEL-28 melanoma) [µM] | TGI (SK-MEL-28 melanoma) [µM] | GI50 (OVCAR-3 ovarian) | TGI (OVCAR-3 ovarian) | GI50 (BT-549 breast) | TGI (BT-549 breast) [µM] | GI50 (LOX IMVI melanoma) | TGI (LOX IMVI melanoma) | GI50 (UO-31 renal) | TGI (UO-31 renal) | GI50 (HT29 colon) | TGI (HT29 colon)
1 | O=c1c2cccc(F)c2sc2c(NCCCNCCO)nc3ccccc3c12 | 1.61 µM | 3.19 µM | 1.77 µM | 3.26 | 1.39 µM | 2.78 µM | 1.53 µM | 2.98 µM | 1.86 | 3.31 | 1.7 µM | 3.12 µM | 6.16 µM | 19.8 | 1.13 µM | 2.38 µM | 1.1 µM | 2.35 µM | 1.51 µM | 3.25 µM
2 | Cc1occc1C(=S)Nc1ccc(Cl)c(C(=O)OCC(C)C)c1 |  | 35.3 µM |  | 26.5 |  | 28.8 µM |  | 65 µM |  | 32.3 |  | 46.5 µM |  | 33.2 |  | 28.6 µM |  | 33.2 µM |  | 26.3 µM
3 | CC1NC(C(=O)O)Cc2cc(O)c(O)cc21 (stereo unspecified) |  | > 100 µM |  | > 100 |  | > 100 µM |  | > 100 µM |  | > 100 |  | > 100 µM |  | > 100 |  | > 100 µM |  | > 100 µM |  | > 100 µM
4 | O=C(/C=C/c1ccco1)Nc1ncc(Cc2cccc(C(F)(F)F)c2)s1 | 0.179 µM | 2.21 µM | 0.0545 µM | 24.6 | 0.0438 µM | > 32.8 µM | 0.0572 µM | 3.18 µM | 1.1 | > 50.2 | 0.0386 µM | 0.45 µM | 0.248 µM | > 21.2 | 0.0572 µM | 2.92 µM | 0.166 µM | 5.13 µM | 0.0388 µM | > 33 µM
5 | Cc1cc2c(C(=O)NCC#N)cccc2n1-c1nc2c(c(NCc3ccccc3)n1)CCCC2 | 0.178 µM | 0.357 µM | 0.203 µM | 0.482 | 0.185 µM | 0.637 µM | 0.22 µM | 0.532 µM | 0.406 | 1.86 | 0.245 µM | 0.62 µM | 0.251 µM | 0.7 | 0.18 µM | 0.358 µM | 0.305 µM | 1.11 µM | 0.303 µM | 1.05 µM
6 | CCC1=C[C@@H]2CN(C1)Cc1c([nH]c3ccccc13)[C@@](C(=O)OC)(c1cc3c(cc1OC)N(C)[C@H]1[C@@](O)(C(=O)OC)[C@H](OC(C)=O)[C@]4(CC)C=CCN5CC[C@]31[C@@H]54)C2 | < 0.011 µM | 1.86 µM | < 0.01 µM | 18.6 | < 0.01 µM | > 40.4 µM | 0.0103 µM | 1.01 µM | < 0.01 | 18.2 | < 0.01 µM | < 0.01 µM | < 0.0107 µM | 8.82 | < 0.01 µM | 15.5 µM | 1.02 µM | 18.6 µM | < 0.01 µM | > 41.6 µM
7 | Nc1c(C(=O)c2ccc(C#CCN3CCOCC3)cc2)cnn1-c1ccc(F)cc1 | > 25 µM | > 25 µM | > 25 µM | > 25 | > 25 µM | > 25 µM | > 25 µM | > 25 µM | > 25 | > 25 | > 25 µM | > 25 µM | > 25 µM | > 25 | > 25 µM | > 25 µM | > 25 µM | > 25 µM | > 25 µM | > 25 µM
8 | C[C@]12CCCN1CC1=NNC(=O)c3cc(F)cc4[nH]c2c1c34 | 25.1 µM | 91.6 µM | 12.7 µM | 28.3 | 14.2 µM | > 100 µM | 18.5 µM | 59.6 µM | 24.9 | 87.2 | 17.8 µM | > 100 µM | 23.2 µM | 99.6 | 7.64 µM | 60.3 µM | 16 µM | > 100 µM | 19.2 µM | > 100 µM
9 | NC(CP(=O)(O)O)C(=O)O (stereo unspecified) |  | > 100 µM |  | > 100 |  | > 100 µM |  | > 100 µM |  | > 100 |  | > 100 µM |  | > 100 |  | > 100 µM |  | > 100 µM |  | > 100 µM
10 | CC(=O)NC(CS)C(=O)O (stereo unspecified) | > 100 µM | > 100 µM and 50800 µM | > 100 µM | > 100 | > 100 µM | > 100 µM and 52800 µM | > 100 µM | > 100 µM and 35500 µM | > 100 | > 100 | > 100 µM | > 100 µM and 58500 µM |  | > 100 |  | > 100 µM | > 100 µM | > 100 µM and 45400 µM | > 100 µM | > 100 µM and 86700 µM
11 | CN(C)c1ccc(/C=C(\C#N)c2ccccc2)cc1 | 1.31 µM and 3.24 µM and 1.62 µM | 31.7 µM and 57.4 µM and > 100 µM | 0.312 µM and 0.36 µM and 0.52 µM | > 100 | 0.384 µM and 0.441 µM and 0.414 µM | > 60.6 µM and > 100 µM and 29.6 µM | 0.329 µM and 0.344 µM and 0.304 µM | > 100 µM |  | > 100 | 0.272 µM and 0.398 µM and 0.365 µM | 1.22 µM and 3.23 µM and 4.25 µM | 0.121 µM and 0.794 µM and 0.621 µM |  | 0.777 µM and 0.605 µM and 0.404 µM | > 100 µM and 43.1 µM | 0.587 µM and 0.698 µM and 1.74 µM | > 100 µM | 0.33 µM and 0.352 µM and 0.347 µM | 10.9 µM and 71.3 µM
12 | Cc1cncc(-c2nc(NCCc3c[nH]c4ccccc34)c3ncn(C(C)C)c3n2)c1 | 4.12 µM | 15.1 µM | 3.3 µM | 12.1 | 3.88 µM | > 100 µM | 3.94 µM | 16.9 µM | 2.52 | 6.66 | 5.67 µM | 40.9 µM | 2.99 µM | 15 | 4.61 µM | 15.5 µM | 3.06 µM | 12.9 µM | 2.11 µM | 5.17 µM
13 | Cc1cc(O[C@@H]2O[C@@H](C)[C@H](O)[C@@H](O)[C@H]2O)c2c3c(c(O[C@@H]4O[C@@H](C)[C@H](O)[C@@H](O)[C@H]4O)cc2c1)C(=O)c1c(O)cccc1C3=O | > 30 µM | > 30 µM | > 30 µM | > 30 | > 30 µM | > 30 µM | > 30 µM | > 30 µM | > 30 | > 30 | > 30 µM | > 30 µM | > 30 µM | > 30 | > 30 µM | > 30 µM | > 30 µM | > 30 µM | > 30 µM | > 30 µM
